According to patent publication US9695155B2, “Herbicidal substituted pyrimidinyloxy benzene compounds” (E. I. DU PONT DE NEMOURS AND COMPANY, priority 2013, dated 2017):

Tests used:
barnyardgrass [1] = test: Test A preemergence; type: in vivo, Echinochloa crus-galli; details: for Plant response rating, Barnyardgrass: 31 g ai/ha, 0 to 100 scale where 0 is no effect and 100 is complete control, visual, approximately 10 days; for Barnyardgrass plant response rating (0 to 100 scale, 0 is no effect, 100 is complete control): 125 g ai/ha
Summary of the method: (§1)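 Scoring: eye-based comparison with untreated controls, 0 for no effect through 100 for complete control, at about day 10. Treatments: directed soil spray preemergence; foliar spray postemergence on 2–10 cm plants at the one- to two-leaf stage. Medium: loam soil with sand.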

kochia [2] = test: Test A preemergence; type: in vivo, Kochia scoparia; details: for Plant response rating, Kochia: 31 g ai/ha, 0 to 100 scale where 0 is no effect and 100 is complete control, visual, approximately 10 days; for Kochia plant response rating (0 to 100 scale): 125 g ai/ha
Summary of the method: as §1

ragweed [3] = test: Test A preemergence; type: in vivo, Ambrosia elatior; details: for Plant response rating, Ragweed: 31 g ai/ha, 0 to 100 scale where 0 is no effect and 100 is complete control, visual, approximately 10 days; for Ragweed plant response rating (0 to 100 scale): 125 g ai/ha
Summary of the method: as §1

Italian ryegrass [4] = test: Test A preemergence; type: in vivo, Lolium multiflorum; details: for Plant response rating, Ryegrass, Italian: 31 g ai/ha, 0 to 100 scale where 0 is no effect and 100 is complete control, visual, approximately 10 days; for Ryegrass, Italian plant response rating (0 to 100 scale): 125 g ai/ha
Summary of the method: as §1

giant foxtail [5] = test: Test A preemergence; type: in vivo, Setaria faberii; details: for Plant response rating, Foxtail, Giant: 31 g ai/ha, 0 to 100 scale where 0 is no effect and 100 is complete control, visual, approximately 10 days; for Foxtail, Giant plant response rating (0 to 100 scale): 125 g ai/ha
Summary of the method: as §1

pigweed [6] = test: Test A preemergence; type: in vivo, Amaranthus retroflexus; details: for Plant response rating, Pigweed: 31 g ai/ha, 0 to 100 scale where 0 is no effect and 100 is complete control, visual, approximately 10 days; for Pigweed plant response rating (0 to 100 scale): 125 g ai/ha
Summary of the method: as §1

barnyardgrass [7] = test: Test A postemergence; type: in vivo, Echinochloa crus-galli; details: 0 to 100 scale, 0 no effect, 100 complete control
Summary of the method: as §1

kochia [8] = test: Test A postemergence; type: in vivo, Kochia scoparia; details: 0 to 100 scale, 0 no effect, 100 complete control
Summary of the method: as §1

ragweed [9] = test: Test A postemergence; type: in vivo, Ambrosia elatior; details: 0 to 100 scale, 0 no effect, 100 complete control
Summary of the method: as §1

Italian ryegrass [10] = test: Test A postemergence; type: in vivo, Lolium multiflorum; details: 0 to 100 scale, 0 no effect, 100 complete control
Summary of the method: as §1

giant foxtail [11] = test: Test A postemergence; type: in vivo, Setaria faberii; details: 0 to 100 scale, 0 no effect, 100 complete control
Summary of the method: as §1

pigweed [12] = test: Test A postemergence; type: in vivo, Amaranthus retroflexus; details: 0 to 100 scale, 0 no effect, 100 complete control
Summary of the method: as §1

wheat = test: Test A postemergence; type: in vivo, Triticum aestivum; details: 0 to 100 scale, 0 no effect, 100 complete control
Summary of the method: as §1

corn = test: Test A postemergence; type: in vivo, Zea mays; details: 0 to 100 scale, 0 no effect, 100 complete control
Summary of the method: as §1

blackgrass = test: Test A postemergence; type: in vivo, Alopecurus myosuroides; details: 0 to 100 scale, 0 no effect, 100 complete control
Summary of the method: as §1

galium = test: Test A postemergence; type: in vivo, Galium aparine; details: 0 to 100 scale, 0 no effect, 100 complete control
Summary of the method: as §1

rice = test: Test B flooded paddy test; type: in vivo, Oryza sativa; details: Flood, 250 g ai/ha; 0 to 100 scale where 0 is no effect and 100 is complete control
Summary of the method: (§2)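 Plants at 2-leaf stage; pots flooded to 3 cm above soil and compound applied directly into paddy water, depth held throughout. After 13 to 15 days in greenhouse, visual rating versus controls on 0 (no effect) to 100 (complete control) scale.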

sedge, umbrella = test: Test B flooded paddy test; type: in vivo, Cyperus difformis; details: Flood, 250 g ai/ha; 0 to 100 scale where 0 is no effect and 100 is complete control
Summary of the method: as §2

Heteranthera limosa = test: Test B flooded paddy test; type: in vivo; details: Flood, 250 g ai/ha; 0 to 100 scale where 0 is no effect and 100 is complete control
Summary of the method: as §2

barnyardgrass [13] = test: Test B flooded paddy test; type: in vivo, Echinochloa crus-galli; details: Flood, 250 g ai/ha; 0 to 100 scale where 0 is no effect and 100 is complete control
Summary of the method: as §2

Row | SMILES | Plant response rating, Barnyardgrass (barnyardgrass [1]) | Barnyardgrass plant response rating (0 to 100 scale, 0 is no effect, 100 is complete control) (barnyardgrass [1]) | Plant response rating, Kochia (kochia [2]) | Kochia plant response rating (0 to 100 scale) (kochia [2]) | Plant response rating, Ragweed (ragweed [3]) | Ragweed plant response rating (0 to 100 scale) (ragweed [3]) | Plant response rating, Ryegrass, Italian (Italian ryegrass [4]) | Ryegrass, Italian plant response rating (0 to 100 scale) (Italian ryegrass [4]) | Plant response rating, Foxtail, Giant (giant foxtail [5]) | Foxtail, Giant plant response rating (0 to 100 scale) (giant foxtail [5]) | Plant response rating, Pigweed (pigweed [6]) | Pigweed plant response rating (0 to 100 scale) (pigweed [6]) | Plant response rating, Barnyardgrass (barnyardgrass [7]; 31 g ai/ha) | Plant response rating, Barnyardgrass (barnyardgrass [7]; 125 g ai/ha) | Plant response rating, Kochia (kochia [8]; 31 g ai/ha) | Plant response rating, Kochia (kochia [8]; 125 g ai/ha) | Plant response rating, Ragweed (ragweed [9]; 31 g ai/ha) | Plant response rating, Ragweed (ragweed [9]; 125 g ai/ha) | Plant response rating, Ryegrass, Italian (Italian ryegrass [10]; 31 g ai/ha) | Plant response rating, Ryegrass, Italian (Italian ryegrass [10]; 125 g ai/ha) | further results
1 | N#Cc1cccc(Oc2ncc(Cl)cn2)c1-n1ccnc1 [Compound 261] | 0 | 0 | 0 | 0 | 0 | 0 | 0 | 0 | 0 | 0 | 0 | 0 | 0 | 0 | 50 | 70 | 20 | 30 | 0 | 0 | Plant response rating, Foxtail, Giant (giant foxtail [11]; 31 g ai/ha): 0; Plant response rating, Foxtail, Giant (giant foxtail [11]; 125 g ai/ha): 10; Plant response rating, Pigweed (pigweed [12]; 31 g ai/ha): 30; Plant response rating, Pigweed (pigweed [12]; 125 g ai/ha): 60; Plant response rating, Wheat (wheat; 31 g ai/ha): 0; Plant response rating, Wheat (wheat; 125 g ai/ha): 0; Plant response rating, Corn (corn; 31 g ai/ha): 0; Plant response rating, Corn (corn; 125 g ai/ha): 0; Plant response rating, Blackgrass (blackgrass; 31 g ai/ha): 0; Plant response rating, Blackgrass (blackgrass; 125 g ai/ha): 0; Plant response rating, Galium (galium; 31 g ai/ha): 30; Plant response rating, Galium (galium; 125 g ai/ha): 50; Plant response rating, Rice (rice): 0; Plant response rating, Sedge, Umbrella (sedge, umbrella): 0; Plant response rating, Ducksalad (Heteranthera limosa): 0; Plant response rating, Barnyardgrass (barnyardgrass [13]): 0
2 | Cc1cc(C)n(-c2ccccc2Oc2ncc(Cl)cn2)n1 [Compound 264] | 0 | 0 | 0 | 0 | 0 | 0 | 0 | 0 | 0 | 0 | 0 | 0 | 0 | 0 | 0 | 0 | 0 | 0 | 0 | 0 | Plant response rating, Foxtail, Giant (giant foxtail [11]; 31 g ai/ha): 0; Plant response rating, Foxtail, Giant (giant foxtail [11]; 125 g ai/ha): 0; Plant response rating, Pigweed (pigweed [12]; 31 g ai/ha): 0; Plant response rating, Pigweed (pigweed [12]; 125 g ai/ha): 0; Plant response rating, Wheat (wheat; 31 g ai/ha): 0; Plant response rating, Wheat (wheat; 125 g ai/ha): 0; Plant response rating, Corn (corn; 31 g ai/ha): 0; Plant response rating, Corn (corn; 125 g ai/ha): 0; Plant response rating, Blackgrass (blackgrass; 31 g ai/ha): 0; Plant response rating, Blackgrass (blackgrass; 125 g ai/ha): 0; Plant response rating, Galium (galium; 31 g ai/ha): 0; Plant response rating, Galium (galium; 125 g ai/ha): 0; Plant response rating, Rice (rice): 0; Plant response rating, Sedge, Umbrella (sedge, umbrella): 0; Plant response rating, Ducksalad (Heteranthera limosa): 0; Plant response rating, Barnyardgrass (barnyardgrass [13]): 0
